For this test, the system named is coagulase-negative Staphylococci (CoNS). Description: Oxacillin MIC by agar dilution (NCCLS M100-S10, M7), isolate retest. The class given is cell-based. The procedure: Blood culture bottles that were flagged as positive by the BacT/Alert system (Organon Teknika Corp., Durham N.C.) were processed by the Microbiology laboratory using standard microbiologic methods (Kloos & Bannerman, 1999). S. aureus was identified by a positive tube coagulase test. Oxacillin susceptibility for S. aureus was determined using the oxacillin salt agar screen method (NCCLS M100-S10, M7) and for coagulase-negative Staphylococci (CoNS) using disk diffusion testing (NCCLS M100-S10, M2).
In cases where there were discrepancies between the mecA PCR result of the blood culture bottle contents and the initial susceptibility result for the isolate recovered from the bottle, the isolate was re-tested for the mecA gene, oxacillin MIC was determined by agar dilution (NCCLS M100-S10, M7) and disk diffusion testing for oxacillin was repeated (NCCLS M100-S10, M2).
(In agar dilution the substance is mixed into plates at graded concentrations.)

`Cc1onc(-c2ccccc2)c1C(=O)N[C@@H]1C(=O)N2[C@@H]1SC(C)(C)[C@@H]2C(=O)O` [Oxacillin]: the “Oxacillin MIC” value runs as follows: (isolate from bottle 8, initially reported as MS-CoNS) 2.0; (isolate from bottle 10, initially reported as MR-CoNS) 0.5.

The values are drawn from patent US20040110138A1, “Method for the detection of multiple genetic targets” (University of Ottawa, priority 2002, published 2004).
